Test results taken from paper PMC7349874, “High Content Screening Using New U2OS Reporter Cell Models Identifies Harmol Hydrochloride as a Selective and Competitive Antagonist of the Androgen Receptor” (Cells, 2020).

What was measured:
[1] = tested on: GR; assay: GR expression (RT-qPCR and Western blot) in LNCaP cells; settings: 3 µM, 24 h, 1 nM R1881
Method: (§5) LNCaP and VCaP cells were seeded in 6-well plates (10^6 and 2 × 10^6 cells per well, respectively) and, 48 h later, complete medium was replaced by charcoal-stripped medium with 5% FBS. Cells were then treated for 24 h with the tested compounds, and RNA extraction was performed using the Quick RNA Miniprep kit (Zymo-Research, Irvine, CA, USA), according to the manufacturer’s protocol. Reverse transcription was performed with 0.5 µg total RNA using the SuperScript III reverse transcriptase kit (ThermoFisher, Waltham, MA, USA), according to the manufacturer’s protocol, in a final volume of 20 µL. The levels of genes transcripts were measured by real time PCR using a LightCycler 480 system (Roche Life Science, Penzberg, Germany) in the presence of SYBRGreen (SYBR® Premix Ex Taq^tm) and the following primers: FKBP5, sense 5′-[sequence]-3′; antisense 5′-[sequence]-3′; PSA, sense 5′-[sequence]-3′; antisense 5′-[sequence]-3′; TMPRSS2, sense 5′-[sequence]-3′, antisense 5′-[sequence]-3′; GR, sense 5′-[sequence]-3′, antisense 5′-[sequence]-3′; HPRT, sense 5′-[sequence]-3′; antisense 5′-[sequence]-3′; GAPDH, sense 5′-[sequence]-3′; antisense 5′-[sequence]-3′. Expression levels were evaluated with the ΔΔCt method and were normalized to GAPDH. Results are expressed as mRNA expression, relative to control (untreated cells), and are the mean ± SEM of 3 independent experiments. […]

[2] = tested on: VCaP cells; assay: Spheroid growth (CellTiter-Glo), VCaP; settings: 7 days, 1 nM R1881
Method: (§6) Spheroids were generated by seeding prostate cancer cells in non-adherent U-bottom 96-well plates in medium supplemented with 5% of charcoal stripped FBS. VCaP, LNCaP-FGC, DU145, or PC3 cells were seeded in duplicate at a density of 2000, 500, 600, and 600 cells per well, respectively. […] Cell death was first evaluated by the incubation of the spheroids with propidium iodide (1 mg/mL) for 30 min, and quantitation of red fluorescence was performed using a Celigo® imaging cytometer (Nexcelom Bioscience). […] Then, proliferation was assessed following cell lysis with the CellTiter-Glo® Luminescent Cell Viability Assay reagent (Promega, Charbonnière, France), according to the manufacturer protocol. Quantification of the luminescence was performed using a MicroBeta Wallac luminometer (PerkinElmer), and percent growth was calculated relative to DMSO treated cells.
(§7) Spheroids were treated for 7 days, and cell death was evaluated by propidium iodide staining and fluorescence quantification, using the Celigo imaging system. Growth inhibition was then assessed by cell lysis with CellTiter-Glo, and quantification of the luminescence using a MicroBeta Wallac luminometer. Percent growth was calculated relative to dimethyl sulfoxide (DMSO) treated cells (n = 3 ± SEM).

[3] = tested on: LNCaP spheroids
Method: (§1) prostate cancer cells. GAPDH was used as a loading control.
(§2) Spheroids were treated for 7 days with the indicated concentrations of each drug, stained with PI (1 mg/mL) for 30 min and […] was evaluated using the Celigo® imaging system. Results are expressed as mortality ratios as compared to untreated spheroids (set at 1). Each point represent s the m ean ± SEM of 3 […]
(§3) Mortality (ratio/control)
(§4) [Harmol Hydrochloride] (M)

[4] = tested on: VCaP spheroids
Method: as §1, §2, §3, §4

[5] = tested on: GR; assay: GR expression (RT-qPCR and Western blot) in VCaP cells; settings: 3 µM, 24 h, 1 nM R1881
Method: as §5

[6] = tested on: LNCaP cells; assay: Spheroid growth (CellTiter-Glo), LNCaP; settings: 7 days, 1 nM R1881
Method: as §6, §7

[7] = design: method as in PMID 20398925; settings: cited from earlier work
[8] = tested on: AR target genes TMPRSS2, FKBP5, PSA; assay: RT-qPCR of AR target genes in LNCaP cells; settings: 3 µM, 24 h, 1 nM R1881
Method: (§8) LNCaP and VCaP cells were seeded in 6-well plates (10^6 and 2 × 10^6 cells per well, respectively) and, 48 h later, complete medium was replaced by charcoal-stripped medium with 5% FBS. Cells were then treated for 24 h with the tested compounds, and RNA extraction was performed using the Quick RNA Miniprep kit (Zymo-Research, Irvine, CA, USA), according to the manufacturer’s protocol. Reverse transcription was performed with 0.5 µg total RNA using the SuperScript III reverse transcriptase kit (ThermoFisher, Waltham, MA, USA), according to the manufacturer’s protocol, in a final volume of 20 µL. The levels of genes transcripts were measured by real time PCR using a LightCycler 480 system (Roche Life Science, Penzberg, Germany) in the presence of SYBRGreen (SYBR® Premix Ex Taq^tm) and the following primers: FKBP5, sense 5′-[sequence]-3′; antisense 5′-[sequence]-3′; PSA, sense 5′-[sequence]-3′; antisense 5′-[sequence]-3′; TMPRSS2, sense 5′-[sequence]-3′, antisense 5′-[sequence]-3′; GR, sense 5′-[sequence]-3′, antisense 5′-[sequence]-3′; HPRT, sense 5′-[sequence]-3′; antisense 5′-[sequence]-3′; GAPDH, sense 5′-[sequence]-3′; antisense 5′-[sequence]-3′. Expression levels were evaluated with the ΔΔCt method and were normalized to GAPDH. Results are expressed as mRNA expression, relative to control (untreated cells), and are the mean ± SEM of 3 independent experiments.

[9] = biological target: T1, mineralocorticoid receptor (MR) (Homo sapiens, UniProt P08235); assay: Transactivation assay in HG5LN MR cells; type: cell-based; settings: 16 h, 1 nM aldosterone, highest concentrations used (>1 µM)
T1 construct: expressed in transfected cells
T1 sequence (P08235 726-964 limits assumed): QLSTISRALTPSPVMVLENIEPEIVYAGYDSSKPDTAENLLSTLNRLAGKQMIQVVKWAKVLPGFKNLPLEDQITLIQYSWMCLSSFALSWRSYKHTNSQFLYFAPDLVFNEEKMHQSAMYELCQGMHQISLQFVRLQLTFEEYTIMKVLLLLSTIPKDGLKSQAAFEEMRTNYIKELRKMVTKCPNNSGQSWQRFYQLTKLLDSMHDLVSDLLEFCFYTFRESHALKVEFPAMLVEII
Description: HG5LN MR and HG5LN PXR luciferase reporter cell lines were obtained by stable expression of individual ligand binding domains fused to GAL4 DNA binding domain in HG5LN (HeLa GAL4REx5-luciferase) cells, as previously described. HELN PR cells were obtained by stably expressing PR with the ERα DNA binding domain in HELN (HeLa ERE-luciferase) cells and HMLN GR cells were obtained by stable co-transfection of HeLa cells with a plasmid encoding for a glucocorticoid responsive gene (MMTV-Luc-SV-Neo) and a glucocorticoid receptor expressing plasmid, as previously described.
Agonistic activities were evaluated in HMLN GR, HELN PR, HG5LN MR, and HG5LN PXR cells, using dexamethasone 100 nM, R5020 100 nM, aldosterone 100 nM, and SR12813 3 μM as a positive control, respectively. […] RU486 was used as a control antagonist for GR and PR, and spironolactone for MR.
HMLN glucocorticoid receptor (GR), HG5LN mineralocorticoid receptor (MR), HELN progesterone receptor (PR) and HG5LN PXR cells were used to evaluate the antagonistic effect of the tested compounds on (A) the glucocorticoid receptor (GR), (B) the mineralocorticoid receptor (MR), (C) the progesterone receptor (PR) and (D) the agonistic activity towards the pregnane X receptor (PXR). […]

[10] = tested on: AR target genes TMPRSS2, FKBP5, PSA; assay: RT-qPCR of AR target genes in VCaP cells; settings: 3 µM, 24 h, 1 nM R1881
Method: as §8

Structure (SMILES): CNC(=O)c1ccc(N2C(=S)N(c3ccc(C#N)c(C(F)(F)F)c3)C(=O)C2(C)C)cc1F [enzalutamide, reference compound]
- Expression of GR at the mRNA and protein levels [1]: neither harmol nor enzalutamide treatment could significantly alter the expression of GR
- Growth of VCaP spheroids [2]: could inhibit the growth
- Cell death (propidium iodide positive cells) versus untreated spheroids [3]: did not significantly affect the number of propidium iodide positive cells
- Cell death (propidium iodide positive cells) versus untreated spheroids [4]: did not significantly affect the number of propidium iodide positive cells
- Expression of GR at the mRNA and protein levels [5]: neither harmol nor enzalutamide treatment could significantly alter the expression of GR
- Growth of LNCaP spheroids [6]: could inhibit the growth of VCaP and LNCaP cells, tough to a lesser extent
- Cmin required to saturate binding to AR [7]: 10 to 30 µM
- R1881-mediated expression of AR target genes TMPRSS2, FKBP5, PSA [8]: more pronounced for enzalutamide than for harmol hydrochloride
- Antagonistic activity towards MR [9]: small antagonistic activity
- R1881-mediated expression of AR target genes TMPRSS2, FKBP5, PSA [10]: more pronounced for enzalutamide than for harmol hydrochloride
